± gives the expanded uncertainty stated by the source.
settings: Liquid; Resistive pulse heating

Compared with `CCOC(=O)CCCCC(=O)OCC` [diethyl hexanedioate], `CCOC(=O)CCC(=O)OCC` [diethyl butanedioate] is higher in Critical pressure: 1990 ± 60 kPa for the first, 2290 ± 70 kPa for the second.

With `CCOC(=O)CC(=O)OCC` [diethyl 1,3-propanedioate] the Critical pressure was 2700 ± 80 kPa.

Going from `CCOC(=O)CCCCC(=O)OCC` [diethyl hexanedioate] to `CCOC(=O)CCC(=O)OCC` [diethyl butanedioate], the Critical temperature falls from 697 ± 7 K to 666 ± 7 K.

Molecule `CCOC(=O)CC(=O)OCC` [diethyl 1,3-propanedioate] has a Critical temperature of 651 ± 7 K.
